{
  "source": "PubChem BioAssay AID1259409",
  "about": "(Chemical Carcinogenesis Research Information System (CCRIS), 2018)",
  "origin": "cited, not measured here",
  "tested_on": "rodent chemically induced tumor inhibition, incidence and multiplicity",
  "test": "CCRIS tumor inhibitor studies",
  "conditions": "Dose [Inhibitor]: 0, Route [Inhibitor]: INTRAPERITONEAL, Species: MOUSE, Promoter: NONE USED",
  "data": [
    {"molecule": "NC(=S)S", "values": [
      {"measurement": "tumour outcome (control, treated, inhibition, significance)", "setting": "Carcinogen: ETHYL CARBAMATE, 51-79-6, 0.25 MG/G IN 0.005 ML OF 0.9% SALINE ADMINISTERED 30 MIN PRIOR TO CARCINOGEN DOSE (STUDY DURATION: 26 WK), Strain/Sex: STRAIN-A/FEMALE, Target Tissue: Type of Lesion: LUNG: ADENOMA, Dose [Carcinogen]: 0.5 MG/G ONCE", "result": "100%, 100%, 0%, not calculated"},
      {"measurement": "tumour outcome (control, treated, inhibition, significance)", "setting": "Carcinogen: ETHYL CARBAMATE, 51-79-6, 0.25 MG/G IN 0.005 ML OF 0.9% SALINE FIRST DOSE ADMINISTERED 30 MIN PRIOR TO CARCINOGEN DOSE FOLLOWED BY A SECOND DOS, Strain/Sex: STRAIN-A/FEMALE, Target Tissue: Type of Lesion: LUNG: ADENOMA, Dose [Carcinogen]: 0.25 MG/G ONCE", "result": "100%, 100%, 0%, not calculated"},
      {"measurement": "tumour outcome (control, treated, inhibition, significance)", "setting": "Carcinogen: ETHYL CARBAMATE, 51-79-6, 0.25 MG/G IN 0.005 ML OF 0.9% SALINE FIRST DOSE ADMINISTERED 30 MIN PRIOR TO CARCINOGEN DOSE FOLLOWED BY A SECOND DOS, Strain/Sex: STRAIN-A/FEMALE, Target Tissue: Type of Lesion: LUNG: ADENOMA, Dose [Carcinogen]: 0.5 MG/G ONCE", "result": "100%, 100%, 0%, not calculated"},
      {"measurement": "tumour outcome (control, treated, inhibition, significance)", "setting": "Carcinogen: ETHYL CARBAMATE, 51-79-6, 0.5 MG/G IN 0.01 ML OF 0.9% SALINE ADMINISTERED 30 MIN PRIOR TO CARCINOGEN DOSE (STUDY DURATION: 7 MO), Strain/Sex: B6C3F1/MALE, Target Tissue: Type of Lesion: LIVER: HEPATOMA, Dose [Carcinogen]: 0.5 MG/G ONCE", "result": "26/26 (100%), 31/31 (100%), 0%, not calculated"},
      {"measurement": "tumour outcome (control, treated, inhibition, significance)", "setting": "Carcinogen: ETHYL CARBAMATE, 51-79-6, 0.5 MG/G IN 0.01 ML OF 0.9% SALINE ADMINISTERED 30 MIN PRIOR TO CARCINOGEN DOSE (STUDY DURATION: 8 MO), Strain/Sex: B6C3F1/MALE, Target Tissue: Type of Lesion: LIVER: HEPATOMA, Dose [Carcinogen]: 0.125 MG/G ONCE", "result": "24/24 (100%), 24/25 (96%), 4%, not calculated"},
      {"measurement": "tumour outcome (control, treated, inhibition, significance)", "setting": "Carcinogen: ETHYL CARBAMATE, 51-79-6, 0.5 MG/G IN 0.01 ML OF 0.9% SALINE ADMINISTERED 30 MIN PRIOR TO CARCINOGEN DOSE (STUDY DURATION: 8 MO), Strain/Sex: B6C3F1/MALE, Target Tissue: Type of Lesion: LIVER: HEPATOMA, Dose [Carcinogen]: 0.25 MG/G ONCE", "result": "17/17 (100%), 28/29 (97%), 3%, not calculated"},
      {"measurement": "tumour outcome (control, treated, inhibition, significance)", "setting": "Carcinogen: ETHYL CARBAMATE, 51-79-6, 0.5 MG/G IN 0.01 ML OF 0.9% SALINE ADMINISTERED 30 MIN PRIOR TO CARCINOGEN DOSE (STUDY DURATION: 12 MO), Strain/Sex: B6C3F1/FEMALE, Target Tissue: Type of Lesion: HARDERIAN GLAND: TUMOR, Dose [Carcinogen]: 0.5 MG/G ONCE", "result": "40%, 15%, 62%, not calculated"},
      {"measurement": "tumour outcome (control, treated, inhibition, significance)", "setting": "Carcinogen: ETHYL CARBAMATE, 51-79-6, 0.5 MG/G IN 0.01 ML OF 0.9% SALINE ADMINISTERED 30 MIN PRIOR TO CARCINOGEN DOSE (STUDY DURATION: 12 MO), Strain/Sex: B6C3F1/FEMALE, Target Tissue: Type of Lesion: LIVER: HEPATOMA, Dose [Carcinogen]: 0.5 MG/G ONCE", "result": "68%, 19%, 72%, not calculated"},
      {"measurement": "tumour outcome (control, treated, inhibition, significance)", "setting": "Carcinogen: ETHYL CARBAMATE, 51-79-6, 0.5 MG/G IN 0.01 ML OF 0.9% SALINE ADMINISTERED 30 MIN PRIOR TO CARCINOGEN DOSE (STUDY DURATION: 12 MO), Strain/Sex: B6C3F1/FEMALE, Target Tissue: Type of Lesion: LUNG: ADENOMA, Dose [Carcinogen]: 0.5 MG/G ONCE", "result": "48%, 12%, 75%, not calculated"},
      {"measurement": "tumour outcome (control, treated, inhibition, significance)", "setting": "Carcinogen: VINYL CARBAMATE, 15805-73-9, 0.25 MG/G IN 0.005 ML OF 0.9% SALINE ADMINISTERED 30 MIN PRIOR TO CARCINOGEN DOSE (STUDY DURATION: 26 WK), Strain/Sex: STRAIN-A/FEMALE, Target Tissue: Type of Lesion: LUNG: ADENOMA, Dose [Carcinogen]: 0.025 MG/G ONCE", "result": "100%, 100%, 0%, not calculated"},
      {"measurement": "tumour outcome (control, treated, inhibition, significance)", "setting": "Carcinogen: VINYL CARBAMATE, 15805-73-9, 0.5 MG/G IN 0.005 ML OF 0.9% SALINE ADMINISTERED 30 MIN PRIOR TO CARCINOGEN DOSE (STUDY DURATION: 26 WK), Strain/Sex: STRAIN-A/FEMALE, Target Tissue: Type of Lesion: LUNG: ADENOMA, Dose [Carcinogen]: 0.025 MG/G ONCE", "result": "100%, 100%, 0%, not calculated"},
      {"measurement": "tumour outcome (control, treated, inhibition, significance)", "setting": "Carcinogen: VINYL CARBAMATE, 15805-73-9, 0.5 MG/G IN 0.01 ML OF 0.9% SALINE ADMINISTERED 30 MIN PRIOR TO CARCINOGEN DOSE (STUDY DURATION: 7 MO), Strain/Sex: B6C3F1/MALE, Target Tissue: Type of Lesion: LIVER: HEPATOMA, Dose [Carcinogen]: 0.025 MG/G ONCE", "result": "24/24 (100%), 29/29 (100%), 0%, not calculated"},
      {"measurement": "tumour outcome (control, treated, inhibition, significance)", "setting": "Carcinogen: VINYL CARBAMATE, 15805-73-9, 0.5 MG/G IN 0.01 ML OF 0.9% SALINE ADMINISTERED 30 MIN PRIOR TO CARCINOGEN DOSE (STUDY DURATION: 8 MO), Strain/Sex: B6C3F1/MALE, Target Tissue: Type of Lesion: LIVER: HEPATOMA, Dose [Carcinogen]: 0.003 MG/G ONCE", "result": "29/29 (100%), 27/27 (100%), 0%, not calculated"},
      {"measurement": "tumour outcome (control, treated, inhibition, significance)", "setting": "Carcinogen: VINYL CARBAMATE, 15805-73-9, 0.5 MG/G IN 0.01 ML OF 0.9% SALINE ADMINISTERED 30 MIN PRIOR TO CARCINOGEN DOSE (STUDY DURATION: 8 MO), Strain/Sex: B6C3F1/MALE, Target Tissue: Type of Lesion: LIVER: HEPATOMA, Dose [Carcinogen]: 0.008 MG/G ONCE", "result": "23/23 (100%), 27/27 (100%), 0%, not calculated"},
      {"measurement": "tumour outcome (control, treated, inhibition, significance)", "setting": "Carcinogen: VINYL CARBAMATE, 15805-73-9, 0.5 MG/G IN 0.01 ML OF 0.9% SALINE ADMINISTERED 30 MIN PRIOR TO CARCINOGEN DOSE (STUDY DURATION: 12 MO), Strain/Sex: B6C3F1/FEMALE, Target Tissue: Type of Lesion: HARDERIAN GLAND: TUMOR, Dose [Carcinogen]: 0.025 MG/G ONCE", "result": "68%, 22%, 68%, not calculated"},
      {"measurement": "tumour outcome (control, treated, inhibition, significance)", "setting": "Carcinogen: VINYL CARBAMATE, 15805-73-9, 0.5 MG/G IN 0.01 ML OF 0.9% SALINE ADMINISTERED 30 MIN PRIOR TO CARCINOGEN DOSE (STUDY DURATION: 12 MO), Strain/Sex: B6C3F1/FEMALE, Target Tissue: Type of Lesion: LIVER: HEPATOMA, Dose [Carcinogen]: 0.025 MG/G ONCE", "result": "96%, 30%, 69%, not calculated"},
      {"measurement": "tumour outcome (control, treated, inhibition, significance)", "setting": "Carcinogen: VINYL CARBAMATE, 15805-73-9, 0.5 MG/G IN 0.01 ML OF 0.9% SALINE ADMINISTERED 30 MIN PRIOR TO CARCINOGEN DOSE (STUDY DURATION: 12 MO), Strain/Sex: B6C3F1/FEMALE, Target Tissue: Type of Lesion: LUNG: ADENOMA, Dose [Carcinogen]: 0.025 MG/G ONCE", "result": "54%, 9%, 83%, not calculated"}
    ]}
  ]
}
